The source made the active and inactive calls. No rule for the calls is given here. Some results are limits rather than exact numbers.

This experiment concerns the target Chaperone protein DnaK (Escherichia coli (strain K12)) (UniProt P0A6Y8). The experiment is described as follows: E. coli DnaK SBD ligand binding – biophysical, NMR, chaperone (AID 1033). The note with it: Purified DnaK SBD.

Chain of Chaperone protein DnaK (Escherichia coli (strain K12)) (P0A6Y8 whole entry, looked up): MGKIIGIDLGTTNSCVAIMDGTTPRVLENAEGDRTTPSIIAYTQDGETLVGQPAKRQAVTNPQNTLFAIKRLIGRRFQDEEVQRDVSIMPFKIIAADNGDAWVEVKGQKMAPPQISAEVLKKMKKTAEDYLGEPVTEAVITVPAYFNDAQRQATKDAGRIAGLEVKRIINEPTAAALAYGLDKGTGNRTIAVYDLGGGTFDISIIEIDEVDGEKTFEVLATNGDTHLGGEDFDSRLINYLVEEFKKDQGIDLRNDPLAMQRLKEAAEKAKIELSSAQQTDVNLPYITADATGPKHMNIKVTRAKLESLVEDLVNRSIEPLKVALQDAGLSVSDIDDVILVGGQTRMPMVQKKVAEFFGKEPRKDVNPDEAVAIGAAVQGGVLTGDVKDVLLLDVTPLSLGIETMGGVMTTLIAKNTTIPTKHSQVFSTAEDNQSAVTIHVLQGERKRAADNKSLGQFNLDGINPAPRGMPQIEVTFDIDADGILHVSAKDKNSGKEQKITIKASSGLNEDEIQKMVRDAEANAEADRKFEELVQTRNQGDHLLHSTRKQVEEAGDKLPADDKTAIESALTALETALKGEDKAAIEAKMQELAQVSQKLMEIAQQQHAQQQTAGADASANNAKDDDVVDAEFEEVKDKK

The term Kd denotes the free concentration of one partner at which half of the binding sites on the other are occupied at equilibrium, for simple one-to-one binding. Turning to `C=CC(=O)N1CC2CC(C1)c1cccc(=O)n1C2` (stereo unspecified), the Kd was > 4 mM (inactive).
Regarding `Cc1c(C(=O)N2CCOCC2)oc2c1C(=O)CC(C)(C)C2`, the Kd is > 4 mM (inactive).
Turning to `O=C(O)c1ccnn1-c1ccccc1`, the Kd was > 4 mM (inactive).
For the compound `CSc1ccccc1NC(=O)c1ccoc1C`, the Kd was > 4 mM (inactive).
As to `CC(C)(CO)NC(=O)c1ccccc1F`, the Kd was > 4 mM (inactive).
For `CC(=O)Nc1ccc2c(c1)CCC2=O`, the Kd was > 4 mM (inactive).
In the case of `N=Nc1c(O)[nH]c2ccccc12` it was > 4 mM (inactive).
Next, `O=C(COc1ccccc1O)NCCO`: > 4 mM (inactive); `CC(C)/C(O)=C1/C(=O)O[C@@H](c2ccoc2)[C@]2(C)C(O)[C@@H](O)[C@@]34OC5(C)OC67CC(C)(C(O)[C@]6(O)[C@@H](O)[C@]3(O5)C12)[C@H](CC(=O)O)[C@]74C` (stereo partly specified): > 4 mM (inactive); `C=C1CCC2C(CC2(C)C)C(=C)CC/C1=N/O` (stereo unspecified): > 4 mM (inactive).
With `Cc1cc(CN2C(=O)c3ccccc3C2=O)on1`, the Kd is > 4 mM (inactive).
As for `NC(=O)C1CCN(C(=O)c2ccccc2F)CC1`, the Kd was > 4 mM (inactive).
On to `COc1ccc(C(O)c2nccn2C)cc1` (stereo unspecified), for which the Kd was > 4 mM (inactive).
Take `Cn1ccc(NC(=S)Nc2cccc([N+](=O)[O-])c2)n1`: the Kd was > 4 mM (inactive).
Regarding `COc1cccc(/C=C/C(=O)O)c1C(C)C`, the Kd is > 4 mM (inactive).
Regarding `C=CC(C1=CC(=O)C(OC)=CC1=O)c1ccc(O)cc1` (stereo unspecified), the Kd was > 4 mM (inactive).
For the compound `Nc1nc(SCc2ccc3c(c2)OCCO3)n[nH]1`, the Kd is > 4 mM (inactive).
In the case of `CNCc1ccco1` it was > 4 mM (inactive); in that of `Cc1nc2c(n1O)CCc1c-2no[n+]1[O-]`, > 4 mM (inactive).
For `O=c1/c(=C\c2cccnc2)sc2nc3ccccc3n12`, the Kd is > 4 mM (inactive).
`Cc1cc(C(=O)N2CCN(S(C)(=O)=O)CC2)cs1`: the Kd is > 4 mM (inactive).
With `CN(C)C(=S)Nc1ccc([N+](=O)[O-])cc1`, the Kd was > 4 mM (inactive).
As to `CC(=O)Oc1cc(-c2coc3cc(OC(C)=O)c(OC(C)=O)c(OC(C)=O)c3c2=O)cc(OC(C)=O)c1OC(C)=O`, the Kd was > 4 mM (inactive).
In the case of `COC1C(O)C(O)C(O)[C@@H](O)C1O` (stereo partly specified), the Kd was > 4 mM (inactive).
For `COc1ccc(Cc2nccc3cc(OC)c(OC)cc23)cc1OC`, the Kd is > 4 mM (inactive).
For the compound `CCOC(=O)C1CCN(Cc2ccccc2)CC1`, the Kd is > 4 mM (inactive).
Consider `O=C(CC1NCCNC1=O)Nc1ccccc1` (stereo unspecified), for which the Kd is > 4 mM (inactive).
As for `Nc1cc(=O)[nH]c(=S)n1CCc1ccccc1`, the Kd was > 4 mM (inactive).
As for `COC(=O)NNc1ncnc(N)c1[N+](=O)[O-]`, the Kd was > 4 mM (inactive).
`CC(C)CCCC(C)[C@H]1CCC2C3CC[C@H]4CC(=O)CC[C@]4(C)C3CC[C@@]21C` (stereo partly specified): the Kd is > 4 mM (inactive).
In the case of `Cc1[nH]n(-c2ccccc2)c(=O)c1[N+](=O)[O-]`, the Kd was > 4 mM (inactive).
Next, `CC(C)=CCc1c2c(c(O)c3c(=O)c(O)c(-c4ccccc4)oc13)C=CC(C)(C)O2`: > 4 mM (inactive); `Cc1nc(-c2cc(C(=O)O)no2)cs1`: > 4 mM (inactive); `NC1=NC(=O)/C(=C\c2cccc(C(=O)O)c2)S1`: > 4 mM (inactive).
In the case of `OCc1ccncc1` it was > 4 mM (inactive); in that of `c1csc(-c2nnc3ccccn23)c1`, > 4 mM (inactive).
Take `CC(=O)OC1CCC2(C)C3CC(=O)C4(C)C(CC5OC6(CCC(C)CO6)[C@@H](C)C54)C3CC[C@H]2C1` (stereo partly specified): the Kd is > 4 mM (inactive).
With `COc1ccc2ccc(=O)oc2c1CC=C(C)C`, the Kd is > 4 mM (inactive).
Next, `CC(=O)c1c(O)cc(O)cc1O`: > 4 mM (inactive); `N#Cc1cccc(Cn2nnc(-c3ccccc3)n2)c1`: > 4 mM (inactive); `Cc1nn(C)c(Cl)c1S(=O)(=O)N1CCOCC1`: > 4 mM (inactive).
Turning to `N#Cc1nc(-c2cccs2)oc1N1CCOCC1`, the Kd is > 4 mM (inactive).
Take `CN(C)C1CCS(=O)(=O)C1` (stereo unspecified): the Kd is > 4 mM (inactive).
For `C/C=C(/C)C(=O)O[C@@H]1Cc2c(ccc3ccc(=O)oc23)OC1(C)C`, the Kd is > 4 mM (inactive).
Regarding `CC1=NCCc2c1[nH]c1cc(O)ccc21`, the Kd was > 4 mM (inactive).
For the compound `NC(=O)c1c(Cl)nsc1-c1ccccc1Cl`, the Kd was > 4 mM (inactive).
Next, `Cc1cc(N)ccc1NC(=O)c1ccco1`: > 4 mM (inactive); `COc1cc(S(=O)(=O)N(C)C)ccc1F`: > 4 mM (inactive).
Consider `O=C(O)C1NCCc2ccccc21` (stereo unspecified), for which the Kd was > 4 mM (inactive).
For the compound `COc1ccc([C@@H]2CC(=O)c3c(O)cc(O[C@@H]4O[C@H](CO[C@H]5O[C@@H](C)[C@H](O)[C@@H](O)[C@H]5O)[C@@H](O)[C@H](O)[C@H]4O)cc3O2)cc1O`, the Kd is > 4 mM (inactive).
For the compound `CC(C)=CCC1=C(O)c2ccccc2C(=O)C1=O`, the Kd is > 4 mM (inactive).
For the compound `O=C1CN(C(=O)CN2CCOCC2)c2ccccc2N1`, the Kd was > 4 mM (inactive).
For the compound `COc1c(O)cc(O)cc1O`, the Kd was > 4 mM (inactive).
In the case of `O=C1NC(=S)S/C1=C/c1ccncc1`, the Kd is > 4 mM (inactive).
On to `O=C(Nc1ccc(N2CCOCC2)cc1)c1cnsn1`, for which the Kd is > 4 mM (inactive).
`COc1cccc2c(=O)n(CC(N)=O)ccc12`: the Kd was > 4 mM (inactive).
As to `O[C@H]1C=C2CCN3Cc4cc5c(cc4C(C23)[C@@H]1O)OCO5` (stereo partly specified), the Kd is > 4 mM (inactive).
In the case of `CC(=O)Nc1ccc(Oc2nc(C)cc(C)n2)cc1`, the Kd was > 4 mM (inactive).
As for `CNC(=S)Nc1ncn(Cc2cccc(F)c2)n1`, the Kd is > 4 mM (inactive).
As for `Cc1cccc(NS(=O)(=O)c2cccs2)n1`, the Kd was > 4 mM (inactive).
In the case of `COc1ccc(NC2=NCC(C)S2)cc1` (stereo unspecified) it was > 4 mM (inactive).
Next, `CC(C)=NNC(=O)c1ccccc1`: > 4 mM (inactive); `Nc1ccc2sccc2c1`: > 4 mM (inactive).
Next, `COc1ccc2c(c1)OCc1c-2oc2cc(OC)ccc12`: > 4 mM (inactive).
Take `O=[N+]([O-])c1ccc(/C=N/c2ncn[nH]2)cc1`: the Kd was > 4 mM (inactive).
Take `COCC(=O)/C=C1\Sc2ccccc2N1C`: the Kd was > 4 mM (inactive).
As for `C=C1C([C@]2(C)C(CC(=O)OC)[C@@](C)(COC(C)=O)OC(=O)C[C@@H]2OC(C)=O)[C@@H](OC=O)[C@H](OC(=O)C(O)C(C)CC)[C@@]2(C)[C@H](c3ccoc3)CC(=O)C12O` (stereo partly specified), the Kd was > 4 mM (inactive).
As for `COc1ccccc1-c1nc(-c2ccc(C)nc2OC)no1`, the Kd was > 4 mM (inactive).
As to `O=C1CC(C(=O)O)c2ccccc21` (stereo unspecified), the Kd was > 4 mM (inactive).
In the case of `Clc1ccccc1-c1nc(-c2cccnc2)no1` it was > 4 mM (inactive); in that of `CCCCCCCCCCCCCCC(C(=O)O)C(O)(CC(=O)OC)C(=O)O` (stereo unspecified), > 4 mM (inactive); in that of `O=C1CCC(C(=O)NCc2cccnc2)N1` (stereo unspecified), > 4 mM (inactive).
Next, `OCC1CCN(Cc2ccccc2)CC1`: > 4 mM (inactive); `O=C(c1ccco1)N1CCN(Cc2cccc(F)c2)CC1`: > 4 mM (inactive); `OC1CC(c2ccccc2)NC2(CCCC2)C1` (stereo unspecified): > 4 mM (inactive).
Regarding `COC(=O)c1ccc2nsnc2c1`, the Kd is > 4 mM (inactive).
With `CCn1c(-c2c[nH]c3ccccc23)n[nH]c1=S`, the Kd was > 4 mM (inactive).
On to `Cn1cc(C(=O)N/N=C/c2ccccc2)ccc1=O`, for which the Kd was > 4 mM (inactive).
For the compound `COc1ccccc1NC(=O)C1CCC(=O)N1` (stereo unspecified), the Kd is > 4 mM (inactive).
In the case of `Cc1cc(N2C(=O)CCC2=O)n(-c2ccccc2)n1` it was > 4 mM (inactive).
Regarding `CSc1nnc2ccc(-c3cccnc3)nn12`, the Kd was > 4 mM (inactive).
With `O=C(NC(=S)NC1CCSC1=O)c1ccco1` (stereo unspecified), the Kd was > 4 mM (inactive).
In the case of `O=C(O)c1ccc2ccccc2n1` it was > 4 mM (inactive).
In the case of `COc1cc2c(cc1OC)[C@@H]1C(=O)c3ccc(O)c(CC=C(C)C)c3O[C@@H]1CO2` it was > 4 mM (inactive).
As for `CCOC(=O)c1c(C)cc(O)c(C)c1O`, the Kd is > 4 mM (inactive).
`Oc1ccc2c(c1)OCO2`: the Kd is > 4 mM (inactive).
Consider `CC(=O)Nc1ccc(S(=O)(=O)NC(N)=O)cc1`, for which the Kd is > 4 mM (inactive).
As for `CC12CCC(O)CC1CCC1C2[C@H](O)CC2(C)C(C3=CC(=O)OC3)CCC12O` (stereo partly specified), the Kd was > 4 mM (inactive).
Take `COc1cc(OC)c2ccc(=O)oc2c1`: the Kd is > 4 mM (inactive).
`CC(C)Nc1ncnc2c1nnn2C`: the Kd was > 4 mM (inactive).
`COc1cc2c3cc1Oc1cc(ccc1O)C[C@@H]1c4c(cc(OC)c(O)c4Oc4ccc(cc4)C[C@@H]3N(C)CC2)CC[N+]1(C)C`: the Kd was > 4 mM (inactive).
As for `Cc1ccc(C(=O)Nc2nnc(-c3ccncc3)s2)o1`, the Kd was > 4 mM (inactive).
As for `Cc1nc(-c2ccc(NS(C)(=O)=O)cc2)cs1`, the Kd was > 4 mM (inactive).
For `c1ccc(-n2cnnc2)nc1`, the Kd was > 4 mM (inactive).
Turning to `O=C1CSC(=O)N1CNc1ccccc1`, the Kd was > 4 mM (inactive).
As to `Fc1ccc(N2CCNCC2)cc1`, the Kd is > 4 mM (inactive).
In the case of `CC1=CC2C(C(C)C)CCC(C)(O)C2CC1` (stereo unspecified) it was > 4 mM (inactive); in that of `COc1ccc(-c2nnsc2N)cc1`, > 4 mM (inactive); in that of `CN(C)/C=N/S(=O)(=O)c1ccccc1`, > 4 mM (inactive).
Regarding `O=C(Nc1nnc(C(F)(F)F)s1)c1cccnc1`, the Kd was > 4 mM (inactive).
In the case of `N#Cc1cc2ccccc2nc1N`, the Kd is > 4 mM (inactive).

Source of the values: PubChem BioAssay AID1033 (Sanford-Burnham Center for Chemical Genomics, 2008).
